In patent US10987351B2, “RORgamma modulators and uses thereof” (Genfit, priority 2017, dated 2021) one finds IC50 data, which are given here for 14 compounds.

The target of one assay is T1, human RORγt (Homo sapiens, UniProt P51449).
T1 sequence (P51449 1-497 isoform P51449-2): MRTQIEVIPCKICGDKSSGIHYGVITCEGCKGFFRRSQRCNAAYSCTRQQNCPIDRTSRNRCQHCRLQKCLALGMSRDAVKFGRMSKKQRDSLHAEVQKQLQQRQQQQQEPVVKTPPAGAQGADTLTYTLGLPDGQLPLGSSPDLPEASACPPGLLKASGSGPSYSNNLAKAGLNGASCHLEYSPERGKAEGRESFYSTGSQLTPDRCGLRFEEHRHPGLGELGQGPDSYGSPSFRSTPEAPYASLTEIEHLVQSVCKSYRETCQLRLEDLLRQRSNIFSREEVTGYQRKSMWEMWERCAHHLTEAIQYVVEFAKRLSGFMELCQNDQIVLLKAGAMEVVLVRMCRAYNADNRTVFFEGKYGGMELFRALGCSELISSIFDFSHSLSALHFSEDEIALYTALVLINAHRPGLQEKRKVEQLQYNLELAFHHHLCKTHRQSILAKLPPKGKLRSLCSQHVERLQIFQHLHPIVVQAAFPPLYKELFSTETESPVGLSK
The assay is described as follows: RORE Luciferase/RORγt transactivation assay. It is filed as cell-based. Details: the full-length cDNA of human RORγt; V5-His (encoded by the vector); expressed in transfected cells; host or cells: COS-7 (monkey kidney). As to conditions: COS-7 cells transfected with human IL-17 promoter luciferase reporter and RORγt plasmid, 20 h; read-out: IC50, RORγt activity inhibition (luciferase reporter). The method, then:
It is well known that RORγ binds to a conserved non-coding sequence (CNS) enhancer element in the IL-17 promoter.
Culture medium was changed every 2 days.
The 4.3 Kb human IL-17 promoter containing the RORγ-specific CNS enhancer element was PCR amplified from human genomic DNA and cloned into a pGL3-TKLuc2Cp reporter plasmid.
The luciferase reporter plasmid and the RORγt overexpression plasmid were transfected into COS-7 cell line using 4 μLJetPEI™/μg of DNA. Briefly, 150 ng of DNA (ration 1/2 between RORE-Tk Luc2Cp and cDNA RORγt or the empty vector for the negative control) was served to transfect adherent COS-7 cells in a […] culture flask, in complete medium (see cos-7 cell line culture).
Cells were then detached (using trypsin) and washed by centrifugation at 300 g for 10 minutes. Cell pellet was resuspended in serum free/phenol red free DMEM and seeded in 384 well plates at a density of 10000 cells/well and then incubated for 4 h at 37° C.
Compounds were dissolved in 100% DMSO to obtain 10 mM stock solutions. For each compound, test concentrations were diluted in serum free/phenol red free DMEM using the Genesis Freedom 200™ (TECAN) and added to the cells to obtain a 0.3% DMSO final concentration (in a final volume of 40 μL per well).
The luciferase activity was then measured with 40 μL/well steady-Glo Luciferase assay system (Promega, Madison, Wis.) and after incubation at room temperature for 30 minutes. The luminescence was estimated using the Ultra384 reader (TECAN). Data were collected and analyzed using GraphPad Prism software (GraphPad Software V5.02, San Diego Calif. USA). IC50 in μM and Emax in % were reported for each compound.
A general note: A reporter such as luciferase makes a cellular process visible.

In assay [1] the target is T2, RORγt ligand-binding domain (RORγt-LBD) (Homo sapiens, UniProt P51449).
T2 construct: 20 nM recombinantly expressed RORγ-LBD fused to GST
T2 sequence (P51449 269-508 limits assumed): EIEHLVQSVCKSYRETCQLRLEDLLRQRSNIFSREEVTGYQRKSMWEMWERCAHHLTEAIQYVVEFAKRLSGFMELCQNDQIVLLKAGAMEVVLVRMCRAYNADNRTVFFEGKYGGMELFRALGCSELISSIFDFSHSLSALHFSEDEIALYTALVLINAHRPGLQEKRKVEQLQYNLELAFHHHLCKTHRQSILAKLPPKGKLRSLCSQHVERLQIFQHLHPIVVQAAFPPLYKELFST
The assay is described as follows: Time-resolved FRET (TR-FRET) RORγt coactivator assay. It is filed as biochemical. As to conditions: GST-RORγ-LBD, biotinylated RIP140 peptide, 2 hours; read-out: IC50, coactivator-RORγt binding inhibition (TR-FRET). The source says:
Time-resolved FRET (TR-FRET) RORγt coactivator assay was used to identify RORγ modulator compounds with ligand-dependent coactivator displacement. The assay uses a d2-labeled anti-GST antibody, synthetic N-terminally biotinylated peptide which is derived from nuclear receptor coactivator protein RIP140, and a RORγt ligand-binding domain (RORγt-LBD) that is tagged with glutathione-S-transferase (GST). The influence of compounds on the RORγ-peptide interaction relies on the binding dependent energy transfer from a donor to an acceptor fluorophor attached to the binding partner of interest. […] For reduction of background from compound fluorescence, TR-FRET method makes use of generic fluorophore labels and time resolved detection.
The assays were done in a final volume of 20 μl in a 384 well plate in a CHAPS buffer (2 mM CHAPS; 1 mM DTT, 2 mM EDTA; 0.1% BSA), containing 20 nM recombinantly expressed RORγ-LBD fused to GST, 30 nM N-terminally biotinylated peptide, 1 nM streptavidin-terbium conjugate and 20 nM d2 labeled-anti-GST. Test compounds were diluted using 10 mM stock solution. The range of the final compound concentrations used in this test was from 0.3 nM to 30 μM (logarithmic scale). DMSO content of the samples was kept at 1%. The assay was equilibrated for 2 hours in the dark at room temperature in 384 well plates (Falcon). The signal was detected by an Ultra384 reader (TECAN). […] Compounds that promote coactivator displacement induce a concentration-dependent decrease in time-resolved fluorescent signal. Data were collected and analyzed using GraphPad Prism software (GraphPad Software V5.02, San Diego Calif. USA). IC50 in μM and Emax in % were reported for each compound.

Each structure is given as a SMILES string. pIC50: −log10 of the molar value. “And” between values parts separate entries of the source, which are not always exact repeats. Identical values can stand only once.

Take `Cc1ccc(C(NC(=O)Cc2cccc(N3CCN(C)CC3)c2)c2ccc(C)o2)c(N2CCCCC2)c1` (centres unmarked) [Cpd.23, N-{[4-methyl-2-(piperidin-1-yl)phenyl](5-methylfuran-2-yl)methyl}-2-[3-(4-methylpiperazin-1-yl)phenyl]acetamide]: the results for the negative-log IC50 (pIC50) (on human RORγt; in assay [1]) were 6.00 to 7.00 and above 7.00, respectively.
Take `Cc1ccc(C(NC(=O)Cc2cc(N3CCNCC3)ccc2C)c2ccccc2)c(N2CCCCC2)c1` (centres unmarked) [Cpd.6, N-{[4-methyl-2-(piperidin-1-yl)phenyl](phenyl)methyl}-2-[2-methyl-5-(piperazin-1-yl)phenyl]acetamide]: the negative-log IC50 (pIC50) (at human RORγt; in assay [1]) was 5.00 to 6.00 each time.
Take `Cc1ccc(C(NC(=O)Cc2cccc(N3CCN(C(=O)C(F)(F)F)CC3)c2)c2ccc(C)o2)c(N2CCCCC2)c1` (centres unmarked) [Cpd.25, N-{[4-methyl-2-(piperidin-1-yl)phenyl](5-methylfuran-2-yl)methyl}-2-{3-[4-(trifluoroacetyl)piperazin-1-yl]phenyl}acetamide]: the negative logarithm of the IC50 (pIC50) (in general, the negative decadic logarithm of the IC50, by convention in mol/L) at human RORγt is above 7.00; in assay [1], 6.00 to 7.00.
As for `CC(=O)N1CCN(c2ccc(CC(=O)NC(CC(C)C)c3ccccc3N3CCCCC3)cc2)CC1` (centres unmarked) [Cpd.2, 2-[4-(4-acetylpiperazin-1-yl)phenyl]-N-{3-methyl-1-[2-(piperidin-1-yl)phenyl]butyl}acetamide], the pIC50 (at human RORγt; in assay [1]) was 6.00 to 7.00 in each case.
For `Cc1ccc(C(NC(=O)Cc2cc(N3CCNCC3)ccc2C)c2ccc(C)o2)c(N2CCCCC2)c1` (centres unmarked) [Cpd.9, N-{[4-methyl-2-(piperidin-1-yl)phenyl](5-methylfuran-2-yl)methyl}-2-[2-methyl-5-(piperazin-1-yl)phenyl]acetamide], the negative-log IC50 (pIC50) is 5.00 to 6.00 on human RORγt and 6.00 to 7.00 in assay [1].
On to `COc1ccc(C(NC(=O)Cc2cc(N3CCN(C(C)=O)CC3)ccc2C)c2ccccc2)c(N2CCCCCC2)c1` (centres unmarked) [Cpd.15, 2-[5-(4-acetylpiperazin-1-yl)-2-methylphenyl]-N-{[2-(azepan-1-yl)-4-methoxyphenyl](phenyl)methyl}acetamide], for which the pIC50 was 6.00 to 7.00 at human RORγt; 6.00 to 7.00 and > 7.00 in assay [1].
For `CC(=O)N1CCN(c2ccc(F)c(CC(=O)NC(c3ccccc3)c3ccc(C)cc3N3CCCCC3)c2)CC1` (centres unmarked) [Cpd.13, 2-[5-(4-acetylpiperazin-1-yl)-2-fluorophenyl]-N-{[4-methyl-2-(piperidin-1-yl)phenyl](phenyl)methyl}acetamide], the pIC50 on human RORγt is 6.00 to 7.00; in assay [1], above 7.00.
With `Cc1ccc(C(NC(=O)Cc2cc(N3CCC(S(C)(=O)=O)CC3)ccc2F)c2ccc(C)o2)c(N2CCCCC2)c1` (centres unmarked) [Cpd.21, 2-[2-fluoro-5-(4-methanesulfonylpiperidin-1-yl)phenyl]-N-{[4-methyl-2-(piperidin-1-yl)phenyl](5-methylfuran-2-yl)methyl}acetamide], the pIC50 (on human RORγt; in assay [1]) was above 7.00 throughout.
On to `Cc1ccc(C(NC(=O)Cc2cc(N3CCN(C(=O)OC(C)(C)C)CC3)ccc2C)c2ccccc2)c(N2CCCCC2)c1` (centres unmarked) [Cpd.5, tert-butyl 4-{4-methyl-3-[({[4-methyl-2-(piperidin-1-yl)phenyl](phenyl)methyl}carbamoyl)methyl]phenyl}piperazine-1-carboxylate], for which the pIC50 at human RORγt was below 5.00; in assay [1], 5.00 to 6.00.
On the same counts, the results for `Cc1ccc(C(NC(=O)Cc2cccc(N3CCC(S(C)(=O)=O)CC3)c2)c2ccc(C)o2)c(N2CCCCC2)c1` (centres unmarked) [Cpd.22, 2-[3-(4-methanesulfonylpiperidin-1-yl)phenyl]-N-{[4-methyl-2-(piperidin-1-yl)phenyl](5-methylfuran-2-yl)methyl}acetamide] are above 7.00 and above 7.00.
Turning to `Cc1ccc(C(NC(=O)Cc2cc(N3CCN(C(=O)OC(C)(C)C)CC3)ccc2C)c2ccc(C)o2)c(N2CCCCC2)c1` (centres unmarked) [Cpd.8, tert-butyl 4-{4-methyl-3-[({[4-methyl-2-(piperidin-1-yl)phenyl](5-methylfuran-2-yl)methyl}carbamoyl)methyl]phenyl}piperazine-1-carboxylate], the pIC50 at human RORγt is 6.00 to 7.00; in assay [1], 5.00 to 6.00.
For the compound `Cc1ccc(C(NC(=O)Cc2cc(N3CCN(C(=O)OC(C)(C)C)CC3)ccc2F)c2ccccc2)c(N2CCCCC2)c1` (centres unmarked) [Cpd.4, tert-butyl 4-{4-fluoro-3-[({[4-methyl-2-(piperidin-1-yl)phenyl](phenyl)methyl}carbamoyl)methyl]phenyl}piperazine-1-carboxylate], on human RORγt, the pIC50 was 6.00 to 7.00.
With `Cc1ccc(C(NC(=O)Cc2cc(N3CCNCC3)ccc2F)c2ccccc2)c(N2CCCCC2)c1` (centres unmarked) [Cpd.7, 2-[2-fluoro-5-(piperazin-1-yl)phenyl]-N-{[4-methyl-2-(piperidin-1-yl)phenyl](phenyl)methyl}acetamide], the figures for the pIC50 (at human RORγt; in assay [1]) were below 5.00 and 5.00 to 6.00, respectively.
In the case of `Cc1ccc(C(NC(=O)Cc2cccc(N3CCN(S(N)(=O)=O)CC3)c2)c2ccc(C)o2)c(N2CCCCC2)c1` (centres unmarked) [Cpd.24, N-{[4-methyl-2-(piperidin-1-yl)phenyl](5-methylfuran-2-yl)methyl}-2-[3-(4-sulfamoylpiperazin-1-yl)phenyl]acetamide], the pIC50 on human RORγt was 6.00 to 7.00.
